Test results as given in US7928107B2, “Quinazolines useful as modulators of ion channels” (Vertex Pharmaceuticals Incorporated, priority 2004, dated 2011).

Each compound was assayed against NaV 1.8 channel (Homo sapiens, UniProt Q9Y5Y9) (assay: Activity against NaV 1.8 channel (optical membrane potential assay)).
Assay type: cell-based
Method in brief: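 FRET membrane-potential assay (coumarin CC2-DMPE donor, oxonol DiSBAC2(3) acceptor plus veratridine) on VIPR; compound added with oxonol for 20–30 min before Na+ add-back stimulation. Activity from background-subtracted 460/580 nm ratio change (baseline 2–7 s, response 15–24 s) relative to tetracaine positive and drug-free negative controls.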

NaV 1.8 channel, sequence (Q9Y5Y9 whole entry): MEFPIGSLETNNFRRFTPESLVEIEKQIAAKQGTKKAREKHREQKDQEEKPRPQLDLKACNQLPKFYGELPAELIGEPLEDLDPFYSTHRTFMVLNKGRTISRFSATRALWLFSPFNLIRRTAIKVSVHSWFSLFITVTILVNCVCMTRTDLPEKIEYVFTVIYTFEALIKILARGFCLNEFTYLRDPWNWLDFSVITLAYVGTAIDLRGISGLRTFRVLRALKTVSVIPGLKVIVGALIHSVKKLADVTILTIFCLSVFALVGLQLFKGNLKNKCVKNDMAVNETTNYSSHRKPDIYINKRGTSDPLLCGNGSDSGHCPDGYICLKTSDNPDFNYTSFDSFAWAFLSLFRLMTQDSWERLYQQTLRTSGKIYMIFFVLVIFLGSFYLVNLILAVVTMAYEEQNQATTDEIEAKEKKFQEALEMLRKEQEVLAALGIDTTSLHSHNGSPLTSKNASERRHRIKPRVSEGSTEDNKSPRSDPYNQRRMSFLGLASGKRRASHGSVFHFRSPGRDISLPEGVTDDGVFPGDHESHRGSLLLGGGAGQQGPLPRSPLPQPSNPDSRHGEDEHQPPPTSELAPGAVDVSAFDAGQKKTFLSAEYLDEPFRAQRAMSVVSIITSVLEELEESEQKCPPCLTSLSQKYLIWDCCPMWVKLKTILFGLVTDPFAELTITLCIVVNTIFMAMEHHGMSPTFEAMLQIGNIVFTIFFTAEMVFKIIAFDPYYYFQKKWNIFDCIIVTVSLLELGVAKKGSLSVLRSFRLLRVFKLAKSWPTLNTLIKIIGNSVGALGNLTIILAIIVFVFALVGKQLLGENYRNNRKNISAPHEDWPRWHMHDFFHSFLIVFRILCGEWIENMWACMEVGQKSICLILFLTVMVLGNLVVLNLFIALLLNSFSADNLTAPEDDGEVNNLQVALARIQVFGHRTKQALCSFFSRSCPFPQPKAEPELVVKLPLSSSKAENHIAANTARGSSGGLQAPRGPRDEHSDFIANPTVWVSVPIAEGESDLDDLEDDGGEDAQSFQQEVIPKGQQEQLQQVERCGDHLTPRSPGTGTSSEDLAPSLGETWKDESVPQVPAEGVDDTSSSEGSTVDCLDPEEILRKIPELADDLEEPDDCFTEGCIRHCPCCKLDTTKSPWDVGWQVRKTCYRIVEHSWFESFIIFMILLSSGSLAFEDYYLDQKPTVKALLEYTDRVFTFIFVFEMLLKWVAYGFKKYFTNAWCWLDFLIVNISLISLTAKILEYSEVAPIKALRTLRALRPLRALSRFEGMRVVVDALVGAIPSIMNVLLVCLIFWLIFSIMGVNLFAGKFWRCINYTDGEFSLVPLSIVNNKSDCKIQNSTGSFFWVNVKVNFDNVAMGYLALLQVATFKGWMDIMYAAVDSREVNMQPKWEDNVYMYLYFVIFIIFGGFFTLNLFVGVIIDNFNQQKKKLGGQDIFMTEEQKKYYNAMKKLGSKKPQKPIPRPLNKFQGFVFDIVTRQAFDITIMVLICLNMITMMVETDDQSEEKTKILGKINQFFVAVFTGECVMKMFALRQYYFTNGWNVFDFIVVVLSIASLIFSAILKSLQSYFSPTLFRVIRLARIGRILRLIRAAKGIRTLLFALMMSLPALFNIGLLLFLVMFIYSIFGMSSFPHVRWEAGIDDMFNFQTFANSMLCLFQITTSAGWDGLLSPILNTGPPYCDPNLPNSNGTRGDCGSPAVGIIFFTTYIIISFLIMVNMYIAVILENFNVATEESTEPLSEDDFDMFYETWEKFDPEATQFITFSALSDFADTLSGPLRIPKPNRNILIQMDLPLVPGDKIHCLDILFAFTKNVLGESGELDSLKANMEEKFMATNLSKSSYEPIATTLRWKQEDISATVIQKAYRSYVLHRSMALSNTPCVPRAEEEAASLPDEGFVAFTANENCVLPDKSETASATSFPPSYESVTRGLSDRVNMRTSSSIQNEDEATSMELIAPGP

`Cc1ccc2c(N3CCC[C@@H](CNC(=O)O[C@@H]4CCOC4)C3)nc(-c3ccccc3O)nc2c1` [Example 214, (R)-Tetrahydrofuran-3-yl ((S)-1-(2-(2-hydroxyphenyl)-7-methylquinazolin-4-yl)piperidin-3-yl)methylcarbamate] and `Cc1ccc2c(N3CCC[C@H](NC(=O)O[C@@H]4CCOC4)C3)nc(-c3ccccc3O)nc2c1` [Example 203, (R)-Tetrahydrofuran-3-yl (S)-1-(2-(2-hydroxyphenyl)-7-methylquinazolin-4-yl)piperidin-3-ylcarbamate] cannot be ordered by IC50: over 10 µM for the first, over 10 µM for the second.

Compared with `CNCC(=O)N(C)CC(=O)O[C@H](CC(C)C)C(=O)N1CCN(c2nc(-c3ccccc3O)nc3cc(C)ccc23)CC1` [Example 169, (R)-[Methyl-(2-methylamino-acetyl)-amino]-acetic acid 1-{4-[2-(2-hydroxy-phenyl)-7-methyl-quinazolin-4-yl]-piperazine-1-carbonyl}-3-methyl-butyl ester], `Cc1ccc2c(N3CCN(C(=O)C(O)CC(C)C)CC3)nc(-c3ccccc3O)nc2c1` (stereo not shown) [Example 270] is lower in IC50: over 10 µM for the first, 2 to 10 µM for the second. The second is the more potent here.

First: Cc1ccc2c(N3CCC(NC(=O)OC(C)(C)C)CC3)nc(-c3ccccc3O)nc2c1 [Example 259, {1-[2-(2-Hydroxy-phenyl)-7-methyl-quinazolin-4-yl]-piperidin-4-yl}-carbamic acid tert-butyl ester]
Second: Cc1ccc2c(N3CCC(NC(=O)C(C)(C)O)CC3)nc(-c3ccccc3O)nc2c1 [Example 233, 2-Hydroxy-N-(1-(2-(2-hydroxyphenyl)-7-methylquinazolin-4-yl)piperidin-4-yl)-2-methylpropanamide]
The IC50 of the first is lower: under 2 µM for the first, over 10 µM for the second.

First: Cc1ccc2c(N3CCN(C(=O)CCN4CCCCC4)CC3)nc(-c3ccccc3O)nc2c1 [Example 175, 1-(4-(2-(2-Hydroxyphenyl)-7-methylquinazolin-4-yl)piperazin-1-yl)-3-(piperidin-1-yl)propan-1-one]
Second: Cc1ccc2c(N3CCN(C(=O)[C@H]4CCCO4)CC3)nc(-c3ccccc3O)nc2c1 [Example 187]
The IC50 of the first is higher: over 10 µM for the first, 2 to 10 µM for the second. The second is the more potent here.

First: Cc1ccc2c(N3CC[C@@H](NC(=O)C4CC4)C3)nc(-c3c(O)cccc3F)nc2c1 [Example 346, N—((R)-1-(2-(2-Fluoro-6-hydroxyphenyl)-7-methylquinazolin-4-yl)pyrrolidin-3-yl)cyclopropanecarboxamide]
Second: Cc1ccc2c(N3CC[C@@H](NC(=O)c4ccncc4)C3)nc(-c3c(O)cccc3F)nc2c1 [Example 350, N—((R)-1-(2-(2-Fluoro-6-hydroxyphenyl)-7-methylquinazolin-4-yl)pyrrolidin-3-yl)isonicotinamide]
The IC50 of the first is lower: 2 to 10 µM for the first, over 10 µM for the second.

Compared with `Cc1ccc2c(N3CCN(C(=O)OCC(C)(C)C)CC3)nc(-c3ccccc3O)nc2c1` [Example 197], `CCC(C)(O)CC(=O)N1CCN(c2nc(-c3ccccc3O)nc3cc(C)ccc23)CC1` (stereo not shown) [Example 181] is higher in IC50: under 2 µM for the first, over 10 µM for the second.

`Cc1ccc2c(N3CCN(C(=O)OCc4cccnc4)CC3)nc(-c3c(O)cccc3F)nc2c1` [Example 156, (Pyridin-3-yl)methyl 4-(2-(2-fluoro-6-hydroxyphenyl)-7-methylquinazolin-4-yl)piperazine-1-carboxylate] and `Cc1ccc2c(N3CCN(C(=O)O[C@H]4CCOC4)CC3)nc(-c3c(O)cccc3F)nc2c1` [Example 163, (S)-Tetrahydrofuran-3-yl 4-(2-(2-fluoro-6-hydroxyphenyl)-7-methylquinazolin-4-yl)piperazine-1-carboxylate] fall in the same range of IC50: 2 to 10 µM for the first, 2 to 10 µM for the second.

Compared with `Cc1ccc2c(N3CCN(C(=O)OCc4ccccc4)CC3CO)nc(-c3ccccc3O)nc2c1` (stereo not shown) [Example 157, 3-Hydroxymethyl-4-[2-(2-hydroxy-phenyl)-7-methyl-quinazolin-4-yl]-piperazine-1-carboxylic acid benzyl ester], `Cc1ccc2c(N3CCN(C(=O)[C@@H](O)Cc4ccccc4)CC3)nc(-c3ccccc3O)nc2c1` [Example 131, (S)-2-Hydroxy-1-{4-[2-(2-hydroxy-phenyl)-7-methyl-quinazolin-4-yl]-piperazin-1-yl}-3-phenylpropan-1-one] is higher in IC50: 2 to 10 µM for the first, over 10 µM for the second. The first is the more potent here.

`COc1cccc(C(=O)N[C@@H]2CCN(c3nc(-c4ccccc4O)nc4cc(C)ccc34)C2)c1` [Example 326, N—((R)-1-(2-(2-Hydroxyphenyl)-7-methylquinazolin-4-yl)pyrrolidin-3-yl)-3-methoxybenzamide] and `Cc1ccc2c(N3CC[C@@H](NC(=O)CCc4cccnc4)C3)nc(-c3ccccc3O)nc2c1` [Example 322, N—((R)-1-(2-(2-Hydroxyphenyl)-7-methylquinazolin-4-yl)pyrrolidin-3-yl)-3-(pyridin-3-yl)propanamide] cannot be ordered by IC50: over 10 µM for the first, over 10 µM for the second.

First: CCC(O)(CC)C(=O)NC1CCN(c2nc(-c3ccccc3O)nc3ccccc23)CC1 [Example 240, 2-Ethyl-2-hydroxy-N-(1-(2-(2-hydroxyphenyl)quinazolin-4-yl)piperidin-4-yl)butanamide]
Second: CCC(C)(O)C(=O)NC1CCN(c2nc(-c3ccccc3O)nc3ccccc23)CC1 (stereo not shown) [Example 242, 2-Hydroxy-N-(1-(2-(2-hydroxyphenyl)quinazolin-4-yl)piperidin-4-yl)-2-methylbutanamide]
The IC50 of the first is higher: over 10 µM for the first, 2 to 10 µM for the second. The second is the more potent here.

Compared with `Cc1ccc2c(N3CC[C@H](CNC(=O)[C@H]4CCCO4)C3)nc(-c3ccccc3O)nc2c1` [Example 308, (2R)-Tetrahydro-N—(((R)-1-(2-(2-hydroxyphenyl)-7-methylquinazolin-4-yl)pyrrolidin-3-yl)methyl)furan-2-carboxamide], `Cc1ccc2c(N3CC(CNC(=O)OCC4CCCO4)C3)nc(-c3ccccc3O)nc2c1` (stereo not shown) [Example 415] is lower in IC50: over 10 µM for the first, 2 to 10 µM for the second. The second is the more potent here.

`Cc1ccc2c(N3CCN(C(=O)O[C@H]4CCOC4)CC3)nc(-c3ccccc3O)nc2c1` [Example 183] and `O=C(O[C@H]1CCOC1)N1CCN(c2nc(-c3ccccc3O)nc3ccc(F)cc23)CC1` [Example 117, (S)-Tetrahydrofuran-3-yl 4-(6-fluoro-2-(2-hydroxyphenyl)quinazolin-4-yl)piperazine-1-carboxylate] fall in the same range of IC50: 2 to 10 µM for the first, 2 to 10 µM for the second.

Compared with `CC(O)(C(=O)N1CCN(c2nc(-c3ccccc3O)nc3ccccc23)CC1)C(F)(F)F` (stereo not shown) [Example 178, 2-(Trifluoromethyl)-2-hydroxy-1-(4-(2-(2-hydroxyphenyl)quinazolin-4-yl)piperazin-1-yl)propan-1-one], `CC(C)(C)C[C@@H](O)C(=O)N1CCN(c2nc(-c3ccccc3O)nc3ccccc23)CC1` [Example 191] is lower in IC50: over 10 µM for the first, under 2 µM for the second.

`COCCOC(=O)NC[C@@H]1CCCN(c2nc(-c3ccccc3O)nc3cc(C)ccc23)C1` [Example 257, 2-Methoxyethyl ((S)-1-(2-(2-hydroxyphenyl)-7-methylquinazolin-4-yl)piperidin-3-yl)methylcarbamate] and `CCCOC(=O)NC[C@@H]1CCCN(c2nc(-c3ccccc3O)nc3cc(C)ccc23)C1` [Example 256, Propyl ((S)-1-(2-(2-hydroxyphenyl)-7-methylquinazolin-4-yl)piperidin-3-yl)methylcarbamate] fall in the same range of IC50: 2 to 10 µM for the first, 2 to 10 µM for the second.

Going from `CC(C)(C)COC(=O)NC[C@@H]1CCN(c2nc(-c3ccccc3O)nc3ccc(F)cc23)C1` [Example 375, Neopentyl ((S)-1-(6-fluoro-2-(2-hydroxyphenyl)quinazolin-4-yl)pyrrolidin-3-yl)methylcarbamate] to `Cc1ccc2c(N3CC[C@@H](CNC(=O)OCC(C)C)C3)nc(-c3ccccc3O)nc2c1` [Example 365, Isobutyl ((S)-1-(2-(2-hydroxyphenyl)-7-methylquinazolin-4-yl)pyrrolidin-3-yl)methylcarbamate], the IC50 falls from over 10 µM to under 2 µM.

First: CCC(O)(CC)C(=O)N1CCN(c2nc(-c3ccccc3O)nc3cc(C)ccc23)CC1 [Example 122, 2-Ethyl-2-hydroxy-1-(4-(2-(2-hydroxyphenyl)-7-methylquinazolin-4-yl)piperazin-1-yl)butan-1-one]
Second: CCOC(=O)C(=O)N1CCN(c2nc(-c3ccccc3O)nc3cc(C)ccc23)CC1 [Example 195]
The IC50 of the first is higher: 2 to 10 µM for the first, under 2 µM for the second.

First: CCCOC(=O)NC[C@@H]1CCN(c2nc(-c3ccccc3O)nc3cc(C)ccc23)C1 [Example 367, Propyl ((S)-1-(2-(2-hydroxyphenyl)-7-methylquinazolin-4-yl)pyrrolidin-3-yl)methylcarbamate]
Second: Cc1ccc2c(N3CC[C@@H](NC(=O)CC4CCOCC4)C3)nc(-c3ccccc3O)nc2c1 [Example 317, 2-(Tetrahydro-2H-pyran-4-yl)-N—((R)-1-(2-(2-hydroxyphenyl)-7-methylquinazolin-4-yl)pyrrolidin-3-yl)acetamide]
The IC50 of the first is lower: under 2 µM for the first, 2 to 10 µM for the second. The first is the more potent here.

`Cc1ccc2c(N3CCC(NC(=O)C(O)C(C)C)CC3)nc(-c3ccccc3O)nc2c1` (stereo not shown) [Example 264] and `Cc1ccc2c(N3CCC(NC(=O)C(C)(O)C(F)(F)F)CC3)nc(-c3ccccc3O)nc2c1` (stereo not shown) [Example 246, 2-(Trifluoromethyl)-2-hydroxy-N-(1-(2-(2-hydroxyphenyl)-7-methylquinazolin-4-yl)piperidin-4-yl)propanamide] cannot be ordered by IC50: over 10 µM for the first, over 10 µM for the second.

First: Cc1ccc2c(N3CCN(C(=O)OCC4CCCO4)CC3)nc(-c3ccccc3O)nc2c1 (stereo not shown) [Example 185]
Second: Cc1ccc2c(N3CCN(C(=O)C(O)CC(F)(F)F)CC3)nc(-c3ccccc3O)nc2c1 (stereo not shown) [Example 112, 4,4,4-Trifluoro-2-hydroxy-1-(4-(2-(2-hydroxyphenyl)-7-methylquinazolin-4-yl)piperazin-1-yl)butan-1-one]
The IC50 of the first is lower: 2 to 10 µM for the first, over 10 µM for the second. The first is the more potent here.

`O=C(CC1CCOCC1)N[C@@H]1CCN(c2nc(-c3ccccc3O)nc3ccc(F)cc23)C1` [Example 338, N—((R)-1-(6-Fluoro-2-(2-hydroxyphenyl)quinazolin-4-yl)pyrrolidin-3-yl)-2-(tetrahydro-2H-pyran-4-yl)acetamide] and `Cc1ccc2c(N3CC[C@@H](NC(=O)C4CCOCC4)C3)nc(-c3ccccc3O)nc2c1` [Example 316, Tetrahydro-N—((R)-1-(2-(2-hydroxyphenyl)-7-methylquinazolin-4-yl)pyrrolidin-3-yl)-2H-pyran-4-carboxamide] cannot be ordered by IC50: over 10 µM for the first, over 10 µM for the second.
